Assay results reported in ChEMBL document CHEMBL1133765, “QSAR model for drug human oral bioavailability” (J Med Chem, 2000).

How the values were obtained:
physchem [1] = test: physchem
[2] = octanol/water
physchem [3] = conditions: octanol/water
clinical = conditions: human, in vivo, po

Compound	pKa (physchem [1])	delta logD [2]	logD (physchem [3]; pH 6.5, logD)	bioavailability (clinical; F) [%]	logD (physchem [3]; pH 6.5)	bioavailability (clinical) [%]
CNCCC[C@]12CC[C@H](c3ccccc31)c1ccccc12	10.5	-0.9	0.52	79	–	–
CNS(=O)(=O)Cc1ccc2[nH]cc(CCN(C)C)c2c1	9.4	-0.9	-2.07	< 20	–	–
CC(C)=CCN1CC[C@@]2(C)c3cc(O)ccc3C[C@@H]1[C@@H]2C	8.8	-0.88	–	–	1.05	49
Nc1nc(N)c2nc(-c3ccccc3)c(N)nc2n1	6.2	-0.15	0.8	79	–	–
CNC1=Nc2ccc(Cl)cc2C(c2ccccc2)=[N+]([O-])C1 [CHLORDIAZEPOXIDE]	4.8	-0.01	–	–	2.43	> 80
O=C1CN=C(c2ccccc2Cl)c2cc([N+](=O)[O-])ccc2N1 [CLONAZEPAM]	–	0	–	–	2.41	> 80
Clc1cccc(Cl)c1N=C1NCCN1 [CLONIDINE]	8	-0.82	0.06	> 80	–	–
CN1CCN(C2=Nc3cc(Cl)ccc3Nc3ccccc32)CC1 [CLOZAPINE]	–	-0.81	–	–	1.81	79
O=P1(N(CCCl)CCCl)NCCCO1 (stereo not drawn) [CYCLOPHOSPHAMIDE ANHYDROUS]	–	0	–	–	0.63	> 80
CC(CCc1ccc(O)cc1)NCCc1ccc(O)c(O)c1 (stereo not drawn) [DOBUTAMINE]	9.5	-0.9	-0.48	< 20	–	–
NCCc1ccc(O)c(O)c1 [DOPAMINE]	8.9	-0.9	-3.37	< 20	–	–
CCCCCc1cc(O)c2c(c1)OC(C)(C)[C@@H]1CCC(C)=C[C@@H]21 [DRONABINOL]	–	0	–	–	4.49	< 20
CNC[C@H](O)c1ccc(O)c(O)c1 [EPINEPHRINE]	9.9	-0.9	-3.49	< 20	–	–
C#C[C@]1(O)CC[C@H]2[C@@H]3CCc4cc(O)ccc4[C@H]3CC[C@@]21C [ETHINYL ESTRADIOL]	–	0	3.67	49	–	–
CCC1(C)CC(=O)NC1=O (stereo not drawn) [ETHOSUXIMIDE]	–	0	–	–	-0.33	> 80
CCNCC(O)c1cccc(O)c1 (stereo not drawn) [ETILEFRINE]	9.8	-0.9	–	–	-2.86	49
CCNC(C)Cc1cccc(C(F)(F)F)c1 (stereo not drawn) [FENFLURAMINE]	10	-0.9	–	–	0.4	79
Nc1nc(=O)[nH]cc1F [FLUCYTOSINE]	–	0	-1.65	> 80	–	–
CCOC(=O)c1ncn2c1CN(C)C(=O)c1cc(F)ccc1-2 [FLUMAZENIL]	6.2	-0.14	–	–	1.01	< 20
O=c1[nH]cc(F)c(=O)[nH]1 [FLUOROURACIL]	8	0.1	–	–	-0.89	49
O=C(CCCN1CCC(O)(c2ccc(Cl)cc2)CC1)c1ccc(F)cc1 [HALOPERIDOL]	–	-0.86	1.42	79	–	–
NNC(=O)c1ccncc1 [ISONIAZID]	–	0	-0.7	> 80	–	–
CC(C)NCC(O)c1ccc(O)c(O)c1 (stereo not drawn) [ISOPROTERENOL]	8.7	-0.88	-2.76	49	–	–

Compound	pKa (physchem [1])	delta logD [2]	logD (physchem [3]; pH 6.5, logD)	bioavailability (clinical; F) [%]	logD (physchem [3]; pH 6.5)	bioavailability (clinical) [%]
CN(C)CC(Oc1ccccc1)Oc1ccccc1 [MEDIFOXAMINE]	9.2	-0.89	-0.43	49	–	–
CC(C)NCC(O)c1cc(O)cc(O)c1 (stereo not drawn) [METAPROTERENOL]	9.3	-0.9	-2.72	< 20	–	–
C[C@H]1C[C@@H]2[C@H]([C@@H](O)C[C@@]3(C)[C@H]2CC[C@]3(O)C(=O)CO)[C@@]2(C)C=CC(=O)C=C12 [METHYLPREDNISOLONE]	–	0	1.66	> 80	–	–
CN1CCN2c3ccccc3Cc3ccccc3C2C1 (stereo not drawn) [MIANSERIN]	–	-0.52	2.78	49	–	–
CN1CCN2c3ncccc3Cc3ccccc3C2C1 (stereo not drawn) [MIRTAZAPINE]	7.1	-0.55	2.01	79	–	–
Oc1ccc2c3c1O[C@H]1[C@@H](O)CC[C@@]4(O)[C@@H](C2)N(CC2CCC2)CC[C@]314 [NALBUPHINE]	8.7	-0.88	–	–	-0.63	< 20
C=CCN1CC[C@]23c4c5ccc(O)c4O[C@H]2C(=O)CC[C@@]3(O)[C@H]1C5 [NALOXONE]	–	-0.81	–	–	0.64	< 20
COC(=O)C1=C(C)NC(C)=C(C(=O)OCCN(C)Cc2ccccc2)C1c1cccc([N+](=O)[O-])c1 (stereo not drawn) [NICARDIPINE]	7.6	-0.72	1.18	49	–	–
COC(=O)C1=C(C#N)NC(C)=C(C(=O)OC(C)C)C1c1cccc([N+](=O)[O-])c1 (stereo not drawn) [NILVADIPINE]	–	0	1.99	< 20	–	–
COCCOC(=O)C1=C(C)NC(C)=C(C(=O)OC(C)C)C1c1cccc([N+](=O)[O-])c1 (stereo not drawn) [NIMODIPINE]	–	0	0.73	< 20	–	–
O=C1CN=C(c2ccccc2)c2cc([N+](=O)[O-])ccc2N1 [NITRAZEPAM]	–	0	–	–	2.25	79
O=C1CN(/N=C/c2ccc([N+](=O)[O-])o2)C(=O)N1 [NITROFURANTOIN]	–	0	-0.47	> 80	–	–
CNC(=C[N+](=O)[O-])NCCSCc1csc(CN(C)C)n1 [NIZATIDINE]	6.8	-0.38	-0.08	> 80	–	–
C#C[C@]1(O)CC[C@H]2[C@@H]3CCC4=CC(=O)CC[C@@H]4[C@H]3CC[C@@]21C [NORETHINDRONE]	–	0	2.97	79	–	–
CNCCC=C1c2ccccc2CCc2ccccc21 [NORTRIPTYLINE]	–	-0.9	1.08	79	–	–
CC(=O)CCCCn1c(=O)c2c(ncn2C)n(C)c1=O [PENTOXIFYLLINE]	–	0	0.29	49	–	–
CCC1(c2ccccc2)C(=O)NC(=O)NC1=O [PHENOBARBITAL]	–	0.21	–	–	1.43	> 80
CCC1(c2ccccc2)C(=O)NCNC1=O [PRIMIDONE]	–	0	0.91	> 80	–	–
CC(C)(Sc1cc(C(C)(C)C)c(O)c(C(C)(C)C)c1)Sc1cc(C(C)(C)C)c(O)c(C(C)(C)C)c1 [PROBUCOL]	–	0	7.29	< 20	–	–
Cc1nc2n(c(=O)c1CCN1CCC(c3noc4cc(F)ccc34)CC1)CCCC2 [RISPERIDONE]	–	-0.9	–	–	0.74	79
CC(=O)S[C@@H]1CC2=CC(=O)CC[C@]2(C)[C@H]2CC[C@@]3(C)[C@@H](CC[C@@]34CCC(=O)O4)[C@H]12 [SPIRONOLACTONE]	–	0	2.78	49	–	–
COc1cc2nc(N3CCN(C(=O)C4CCCO4)CC3)nc(N)c2cc1OC (stereo not drawn) [TERAZOSIN]	–	-0.52	0.29	> 80	–	–
CC(C)(C)NCC(O)c1cc(O)cc(O)c1 (stereo not drawn) [TERBUTALINE]	–	-0.89	-1.82	< 20	–	–
